Experimental data published in PMC8062632, “Structural studies of phosphorylation-dependent interactions between the V2R receptor and arrestin-2” (Nature Communications, 2021).

Experiments:
Type in all cases: cell-based
V2R-4 (V2R-T360A) [1] = test: FlAsH-BRET recruitment of c-Raf-1 to arrestin2; conditions: HEK293 cells, Argipressin 10 μM, 37 °C, 10 min
Procedure: (§1) The interaction between arrestin2 and c-Raf-1 was measured by the FlAsH-BRET method. […] Data are expressed as relative values of ΔBRET ratio with the mean ± SEM of three independent experiments (n = 3). […] Source data are provided in the Source. Data file.
(§2) After 24 h of transfection, the cells were detached and distributed into 96-well plates at a density of ~25,000 cells per well. After another 24 h incubation at 37 °C, the cells were labeled FlAsH-EDT2 for 40 min at 37 °C and washed twice with Tyrode’s buffer (140 mM NaCl, 2.7 mM KCl, 1 mM CaCl2, 12 mM NaHCO3, 5.6 mM D-glucose, 0.5 mM MgCl2, 0.37 mM NaH2PO4, and 25 mM HEPES, pH = 7.4) and stimulated with or without Argipressin (final concentration of 10 μM) at 37 °C for 10 min Luciferase substrate coelenterazine-h was added at a final concentration of 5 μM before light emissions were recorded using a Mithras LB940 microplate reader (Berthold Technologies) equipped with BRET filter sets. The BRET signal was determined by calculating the ratio of the light intensity emitted by YFP ([…]) over the light intensity emitted by Rluc ([…]). Source data are provided in a Source Data file.

V2R-3 (V2R-S357A) [2] = test: FlAsH-BRET recruitment of c-Raf-1 to arrestin2; conditions: HEK293 cells, Argipressin 10 μM, 37 °C, 10 min
Procedure: as §1, §2

[3] = system: V2R-6-7 (V2R-S363A/S364A); test: FlAsH-BRET recruitment of c-Raf-1 to arrestin2; conditions: HEK293 cells; for ΔBRET ratio, c-Raf-1 recruitment to arrestin2: V2R-6-7, Argipressin 10 μM, 37 °C, 10 min
Procedure: as §1, §2

V2R-WT [4] = test: FlAsH-BRET recruitment of c-Raf-1 to arrestin2; conditions: HEK293 cells, Argipressin 10 μM, 37 °C, 10 min
Procedure: as §1, §2

V2R-1 (V2R-T347A) [5] = test: FlAsH-BRET recruitment of c-Raf-1 to arrestin2; conditions: HEK293 cells; for ΔBRET ratio, c-Raf-1 recruitment to arrestin2: V2R-1, Argipressin 10 μM, 37 °C, 10 min
Procedure: as §1, §2

V2R-4 (V2R-T360A) [6] = test: FlAsH-BRET recruitment of MEK1 to arrestin2; conditions: HEK293 cells; for ΔBRET ratio, MEK1 recruitment to arrestin2: V2R-4, Argipressin 10 μM, 37 °C, 10 min
Procedure: (§3) The blue ball: K357 site in arrestin2; Yellow pentagram: the position of FlAsH labeled in MEK1. […] Data are expressed as ΔBRET ratio relative values and represent the mean ± SEM of three independent experiments (n = 3). […] Source data are provided in the Source Data file.
(§4) 24 h after transfection, the cells were detached and distributed into 96-well plates at a density of ~25,000 cells per well. After another 24 h of incubation at 37 °C, the cells were labeled FlAsH-EDT2 for 40 min at 37 °C and washed twice with Tyrode’s buffer (140 mM NaCl, 2.7 mM KCl, 1 mM CaCl2, 12 mM NaHCO3, 5.6 mM D-glucose, 0.5 mM MgCl2, 0.37 mM NaH2PO4, and 25 mM HEPES, pH = 7.4) and stimulated with or without Argipressin (final concentration of 10 μM) at 37 °C for 10 min Luciferase substrate coelenterazine-h was added at a final concentration of 5 μM before light emissions were recorded using a Mithras LB940 microplate reader (Berthold Technologies) equipped with BRET filter sets. The BRET signal was determined by calculating the ratio of the light intensity emitted by YFP ([…]) over the light intensity emitted by Rluc ([…]). Source data are provided in a Source Data file.

V2R-3 (V2R-S357A) [7] = test: FlAsH-BRET recruitment of MEK1 to arrestin2; conditions: HEK293 cells; for ΔBRET ratio, MEK1 recruitment to arrestin2: V2R-3, Argipressin 10 μM, 37 °C, 10 min
Procedure: as §3, §4

[8] = system: V2R-6-7 (V2R-S363A/S364A); test: FlAsH-BRET recruitment of MEK1 to arrestin2; conditions: HEK293 cells; for ΔBRET ratio, MEK1 recruitment to arrestin2: V2R-6-7, Argipressin 10 μM, 37 °C, 10 min
Procedure: as §3, §4

V2R-WT [9] = test: FlAsH-BRET recruitment of MEK1 to arrestin2; conditions: HEK293 cells; for ΔBRET ratio, MEK1 recruitment to arrestin2: V2R-WT, Argipressin 10 μM, 37 °C, 10 min
Procedure: as §3, §4

V2R-1 (V2R-T347A) [10] = test: FlAsH-BRET recruitment of MEK1 to arrestin2; conditions: HEK293 cells; for ΔBRET ratio, MEK1 recruitment to arrestin2: V2R-1, Argipressin 10 μM, 37 °C, 10 min
Procedure: as §3, §4

vasopressin
ΔBRET ratio, c-Raf-1 recruitment to arrestin2 (V2R-4 (V2R-T360A) [1]; Data1): 0.001 | ΔBRET ratio, c-Raf-1 recruitment to arrestin2 (V2R-4 (V2R-T360A) [1]; Data2): 0.001 | ΔBRET ratio, c-Raf-1 recruitment to arrestin2 (V2R-4 (V2R-T360A) [1]; Data3): 0 | ΔBRET ratio, c-Raf-1 recruitment to arrestin2 (V2R-3 (V2R-S357A) [2]; Data1): 0.005 | ΔBRET ratio, c-Raf-1 recruitment to arrestin2 (V2R-3 (V2R-S357A) [2]; Data2): 0.005 | ΔBRET ratio, c-Raf-1 recruitment to arrestin2 (V2R-3 (V2R-S357A) [2]; Data3): 0.006 | vasopressin-induced interaction between c-Raf-1 and arrestin2 ([3]; S363A-S364A mutations in V2R, in words): abolished | ΔBRET ratio, c-Raf-1 recruitment to arrestin2 ([3]; Data1): 0 | ΔBRET ratio, c-Raf-1 recruitment to arrestin2 ([3]; Data2): 0.001 | ΔBRET ratio, c-Raf-1 recruitment to arrestin2 ([3]; Data3): 0 | ΔBRET ratio, c-Raf-1 recruitment to arrestin2 (V2R-WT [4]; Data1): 0.014 | ΔBRET ratio, c-Raf-1 recruitment to arrestin2 (V2R-WT [4]; Data2): 0.012 | ΔBRET ratio, c-Raf-1 recruitment to arrestin2 (V2R-WT [4]; Data3): 0.015 | c-Raf-1 recruited to arrestin, compared with wild-type V2 receptor (V2R-1 (V2R-T347A) [5]; T347A mutant of the V2 receptor, in words): significantly less | ΔBRET ratio, c-Raf-1 recruitment to arrestin2 (V2R-1 (V2R-T347A) [5]; Data1): 0.006 | ΔBRET ratio, c-Raf-1 recruitment to arrestin2 (V2R-1 (V2R-T347A) [5]; Data2): 0.002 | ΔBRET ratio, c-Raf-1 recruitment to arrestin2 (V2R-1 (V2R-T347A) [5]; Data3): 0.005 | MEK1-arrestin2 association in response to vasopressin stimulation (V2R-4 (V2R-T360A) [6]; T360A mutation of V2R, in words): almost abolished | ΔBRET ratio, MEK1 recruitment to arrestin2 (V2R-4 (V2R-T360A) [6]; Data1): 0 | ΔBRET ratio, MEK1 recruitment to arrestin2 (V2R-4 (V2R-T360A) [6]; Data2): -0.002 | ΔBRET ratio, MEK1 recruitment to arrestin2 (V2R-4 (V2R-T360A) [6]; Data3): -0.003 | MEK1-arrestin2 association in response to vasopressin stimulation (V2R-3 (V2R-S357A) [7]; S357A mutation of V2R, in words): almost abolished | ΔBRET ratio, MEK1 recruitment to arrestin2 (V2R-3 (V2R-S357A) [7]; Data1): 0 | ΔBRET ratio, MEK1 recruitment to arrestin2 (V2R-3 (V2R-S357A) [7]; Data2): 0.001 | ΔBRET ratio, MEK1 recruitment to arrestin2 (V2R-3 (V2R-S357A) [7]; Data3): 0.001 | MEK1-arrestin2 association in response to vasopressin stimulation ([8]; S363A-S364A mutations of V2R, in words): almost abolished | ΔBRET ratio, MEK1 recruitment to arrestin2 ([8]; Data1): 0 | ΔBRET ratio, MEK1 recruitment to arrestin2 ([8]; Data2): 0.001 | ΔBRET ratio, MEK1 recruitment to arrestin2 ([8]; Data3): 0 | ΔBRET ratio, MEK1 recruitment to arrestin2 (V2R-WT [9]; Data1): 0.008 | ΔBRET ratio, MEK1 recruitment to arrestin2 (V2R-WT [9]; Data2): 0.005 | ΔBRET ratio, MEK1 recruitment to arrestin2 (V2R-WT [9]; Data3): 0.008 | recruitment of MEK1 to arrestin2 (V2R-WT [9]; wild-type V2 receptor, in words): significantly increased | ΔBRET ratio, MEK1 recruitment to arrestin2 (V2R-1 (V2R-T347A) [10]; Data1): 0.008 | ΔBRET ratio, MEK1 recruitment to arrestin2 (V2R-1 (V2R-T347A) [10]; Data2): 0.004 | ΔBRET ratio, MEK1 recruitment to arrestin2 (V2R-1 (V2R-T347A) [10]; Data3): 0.005 | recruitment of MEK1 to arrestin2 (V2R-1 (V2R-T347A) [10]; V2 receptor T347A mutant, in words): significantly increased
